Read-outs that look alike come from different tables or passages of the source. Blank lines part the entries; values can stand above or below the compound they belong to.
How the values were obtained:
IDE [1] = molecular target: T1, IDE (Homo sapiens (Human), UniProt P14735); assay: In vitro protease assay with IDE (cleavage of fluorophore-quencher substrate peptide); type: biochemical; settings: for activity / potency against IDE (in words): derivatives compared with 6b; for potency of trans-olefin isomer relative to corresponding cis-olefin isomer: trans vs cis isomer, IDE inhibition
T1 sequence (P14735 whole entry): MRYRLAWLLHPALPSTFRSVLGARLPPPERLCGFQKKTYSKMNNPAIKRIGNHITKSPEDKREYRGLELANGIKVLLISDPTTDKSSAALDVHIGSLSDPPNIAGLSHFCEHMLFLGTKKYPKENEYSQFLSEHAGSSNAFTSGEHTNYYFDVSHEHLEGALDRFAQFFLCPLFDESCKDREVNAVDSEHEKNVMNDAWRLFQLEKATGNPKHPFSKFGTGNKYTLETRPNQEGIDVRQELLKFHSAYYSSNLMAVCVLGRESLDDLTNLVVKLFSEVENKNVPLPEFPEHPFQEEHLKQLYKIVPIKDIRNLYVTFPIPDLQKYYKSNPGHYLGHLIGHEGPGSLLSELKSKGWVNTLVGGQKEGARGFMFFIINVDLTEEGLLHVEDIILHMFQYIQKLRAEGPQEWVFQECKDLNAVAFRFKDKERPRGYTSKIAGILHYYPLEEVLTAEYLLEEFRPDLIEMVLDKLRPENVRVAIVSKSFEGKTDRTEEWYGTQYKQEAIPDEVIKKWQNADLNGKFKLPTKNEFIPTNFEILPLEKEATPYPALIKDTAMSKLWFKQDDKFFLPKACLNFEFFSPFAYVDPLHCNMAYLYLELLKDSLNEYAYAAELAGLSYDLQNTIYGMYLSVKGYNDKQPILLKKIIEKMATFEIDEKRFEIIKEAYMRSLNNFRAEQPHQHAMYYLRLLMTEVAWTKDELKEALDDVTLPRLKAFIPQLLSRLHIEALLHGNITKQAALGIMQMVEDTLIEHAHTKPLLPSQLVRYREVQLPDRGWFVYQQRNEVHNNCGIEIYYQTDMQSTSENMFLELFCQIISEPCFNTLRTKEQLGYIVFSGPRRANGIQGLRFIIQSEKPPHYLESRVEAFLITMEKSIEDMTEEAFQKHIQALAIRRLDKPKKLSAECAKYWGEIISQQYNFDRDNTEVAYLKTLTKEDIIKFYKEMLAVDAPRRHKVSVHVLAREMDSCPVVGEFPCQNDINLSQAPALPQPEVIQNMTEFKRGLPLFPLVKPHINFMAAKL
Protocol: Protease assays with IDE and neprilysin were performed using Mca-RPPGFSAFK(Dnp)-OH substrate peptide (R&D Systems, SEQ ID NO: 6) and purified recombinant human IDE and recombinant human neprilysin (R&D Systems) according to the manufacturer's instructions. For IDE, 2 μL of small molecule dissolved in DMSO was combined with 48 μL 0.2 μg/mL IDE in IDE assay buffer (50 mM Tris, 1 M NaCl, pH 7.5). 50 μL of 20 μM substrate peptide in IDE assay buffer was then added to initiate the reaction, and peptide cleavage was monitored on a fluorescent plate reader (excitation=320 nm; emission=405 nm) for 5 minutes. The above protocol was also used for assaying neprilysin activity, substituting the neprilysin assay buffer (50 mM Tris, 0.05% Brij-35, pH 9.0).
Compounds were synthesized as described previously;^9 in most cases the macrocycle synthesis yielded two isomers corresponding to the cis and trans olefins generated after macrocyclization. Macrocycles were assayed for IDE inhibition by monitoring cleavage of a substrate peptide^13 containing a fluorophore-quencher pair such that cleavage of the model substrate results in increased fluorescence.

Solubility = type: physicochemical
IDE [2] = molecular target: T1, IDE; assay: In vitro selection of DNA-templated macrocycle library against immobilized IDE; type: binding
Protocol: Selections of the DNA-templated library were performed as described previously.^9 20 μg of IDE was immobilized on 30 μL of Dynabeads His-Tag Isolation and Pulldown (Invitrogen) magnetic particles according to the manufacturer's instructions. Elution of captured DNA-library members was performed by incubating the protein-loaded particles with 200 mM imidazole. Prior to PCR amplification, imidazole was removed from the eluted samples by gel filtration using Princeton Separations Sephadex minicolumns.
Insulin-degrading enzyme (IDE) protein was obtained in its purified form with a poly-histidine tag and immobilized on magnetic particles coated with cobalt. After incubation with the DNA-templated library, non-binding library members were washed away with buffer, and protein-library member complexes were eluted from resin with imidazole (FIG. 1). DNA-templated library members enriched after target selection were PCR amplified with target-specific barcoded primers that appended adaptors required for Illumina high-throughput DNA sequencing. We performed two independent selection replicates with IDE and three independent selections against empty resin as negative control selections. These five barcoded selection PCR amplicons were pooled in equimolar quantities and submitted for Illumina high-throughput DNA sequencing. High-throughput sequencing yielded 19 million sequence reads—an average of ˜3.8 million sequence reads per selection.
After one round of in vitro selection, we identified DNA sequences corresponding to macrocycles A12-B8-C11-D5 (3), A12-B8-C5-D5 (5), A12-B8-C6-D5 (6) and A12-B8-C8-D5 (2) enriched between 4- to 14-fold against IDE (FIG. 2a, IDE selection 1); these same macrocycles were also enriched 3- to 6-fold in a replicate IDE selection (FIG. 2a, IDE selection 2).

recombinant human THOP1 = recombinant human THOP1 (Homo sapiens (Human), UniProt P52888); assay: In vitro protease assay with THOP1; type: biochemical
Sequence of recombinant human THOP1 (P52888 whole entry): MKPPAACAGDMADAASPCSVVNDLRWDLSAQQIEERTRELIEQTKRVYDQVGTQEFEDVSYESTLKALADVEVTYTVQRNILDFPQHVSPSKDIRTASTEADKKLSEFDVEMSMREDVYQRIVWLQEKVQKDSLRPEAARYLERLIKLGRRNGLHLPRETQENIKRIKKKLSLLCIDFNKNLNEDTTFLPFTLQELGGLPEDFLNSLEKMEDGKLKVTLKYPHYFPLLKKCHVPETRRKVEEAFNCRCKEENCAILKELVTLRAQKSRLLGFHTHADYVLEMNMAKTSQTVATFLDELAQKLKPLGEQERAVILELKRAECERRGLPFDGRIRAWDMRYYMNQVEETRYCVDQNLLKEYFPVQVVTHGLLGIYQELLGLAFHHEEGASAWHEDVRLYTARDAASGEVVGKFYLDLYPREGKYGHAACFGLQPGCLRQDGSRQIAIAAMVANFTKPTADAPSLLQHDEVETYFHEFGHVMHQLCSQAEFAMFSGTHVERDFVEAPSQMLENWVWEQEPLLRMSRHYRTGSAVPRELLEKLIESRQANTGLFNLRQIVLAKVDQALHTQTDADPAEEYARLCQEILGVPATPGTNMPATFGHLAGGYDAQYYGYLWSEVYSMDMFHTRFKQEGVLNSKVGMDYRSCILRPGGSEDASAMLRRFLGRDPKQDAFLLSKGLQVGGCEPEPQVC
Protocol: (§1) Protease assays with THOP1 and NLN were performed using MCA-Pro-Leu-Gly-Pro-D-Lys(DNP)-OH (Bachem, SEQ ID NO: 7) and purified recombinant human THOP1 and NLN (R&D Systems) according to the manufacturer's instructions.

recombinant human NLN = recombinant human NLN (Homo sapiens (Human), UniProt Q9BYT8); assay: In vitro protease assay with NLN; type: biochemical
Sequence of recombinant human NLN (Q9BYT8 38-704): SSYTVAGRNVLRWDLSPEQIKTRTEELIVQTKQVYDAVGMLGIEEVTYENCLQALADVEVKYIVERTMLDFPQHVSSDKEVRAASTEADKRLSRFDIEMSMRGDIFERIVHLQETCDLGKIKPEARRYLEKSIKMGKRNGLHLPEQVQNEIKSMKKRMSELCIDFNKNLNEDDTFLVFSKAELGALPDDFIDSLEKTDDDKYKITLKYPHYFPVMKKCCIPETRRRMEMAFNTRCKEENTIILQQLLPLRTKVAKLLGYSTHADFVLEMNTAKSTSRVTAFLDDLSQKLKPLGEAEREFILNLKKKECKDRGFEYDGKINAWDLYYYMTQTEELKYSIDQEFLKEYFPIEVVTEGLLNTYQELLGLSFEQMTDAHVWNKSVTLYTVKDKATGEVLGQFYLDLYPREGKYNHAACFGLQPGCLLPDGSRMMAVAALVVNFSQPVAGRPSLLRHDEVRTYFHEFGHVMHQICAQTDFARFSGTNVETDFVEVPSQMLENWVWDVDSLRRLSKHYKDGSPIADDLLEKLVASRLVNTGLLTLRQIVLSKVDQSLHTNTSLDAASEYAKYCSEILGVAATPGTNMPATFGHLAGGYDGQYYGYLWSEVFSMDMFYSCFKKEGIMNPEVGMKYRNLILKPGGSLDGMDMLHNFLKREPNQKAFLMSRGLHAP
Protocol: as §1

plasma IDE activity = plasma IDE activity (Mus musculus (Mouse), UniProt Q9JHR7); assay: Plasma IDE activity in mice injected with inhibitor; type: in vivo; settings: 60 min after 10 mg/kg, 20 mg/kg, or 40 mg/kg i.p. injection, vs vehicle
Sequence of plasma IDE activity (Q9JHR7 other isoform, or with tags, fused parts or gaps): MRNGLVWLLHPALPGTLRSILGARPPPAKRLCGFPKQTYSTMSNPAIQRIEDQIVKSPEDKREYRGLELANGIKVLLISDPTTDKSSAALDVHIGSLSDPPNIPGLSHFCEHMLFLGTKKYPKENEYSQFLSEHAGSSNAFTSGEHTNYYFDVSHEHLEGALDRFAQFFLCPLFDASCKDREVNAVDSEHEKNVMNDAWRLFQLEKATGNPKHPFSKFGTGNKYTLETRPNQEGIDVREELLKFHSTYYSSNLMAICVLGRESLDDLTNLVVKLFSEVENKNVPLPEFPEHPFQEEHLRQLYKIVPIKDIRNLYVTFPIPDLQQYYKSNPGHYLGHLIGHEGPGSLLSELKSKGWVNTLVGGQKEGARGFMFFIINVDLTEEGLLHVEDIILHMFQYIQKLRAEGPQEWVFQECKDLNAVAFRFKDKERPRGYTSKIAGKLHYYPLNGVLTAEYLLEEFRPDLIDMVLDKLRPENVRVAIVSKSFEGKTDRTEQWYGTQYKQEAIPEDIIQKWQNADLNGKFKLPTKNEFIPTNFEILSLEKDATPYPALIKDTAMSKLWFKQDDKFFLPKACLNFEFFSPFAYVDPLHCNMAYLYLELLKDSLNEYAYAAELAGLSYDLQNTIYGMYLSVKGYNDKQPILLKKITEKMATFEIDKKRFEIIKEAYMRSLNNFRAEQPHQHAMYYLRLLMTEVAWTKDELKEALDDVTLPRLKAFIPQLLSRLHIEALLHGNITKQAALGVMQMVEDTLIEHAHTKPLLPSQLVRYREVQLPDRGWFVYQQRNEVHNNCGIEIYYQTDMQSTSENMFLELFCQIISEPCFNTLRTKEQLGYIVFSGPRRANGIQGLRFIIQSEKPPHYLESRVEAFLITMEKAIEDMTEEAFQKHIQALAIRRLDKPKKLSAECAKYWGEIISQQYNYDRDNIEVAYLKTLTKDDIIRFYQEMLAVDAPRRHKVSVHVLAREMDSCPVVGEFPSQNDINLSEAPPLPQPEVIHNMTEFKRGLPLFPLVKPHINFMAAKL
Protocol: Finally, we compared plasma IDE activity in mice injected with 6b with plasma IDE activity in control mice injected with vehicle alone (18:1:1, saline:DMSO:Tween-80). Plasma IDE activity 60 min after 10 mg/kg, 20 mg/kg, or 40 mg/kg i.p. injection of 6b was inhibited by ≧90% (FIG. 9).

[3] = molecular target: recombinant human neprilysin (Homo sapiens (Human), UniProt P08473); assay: In vitro protease assay with neprilysin; settings: even when assayed at 100 μM
Sequence of recombinant human neprilysin (P08473 whole entry): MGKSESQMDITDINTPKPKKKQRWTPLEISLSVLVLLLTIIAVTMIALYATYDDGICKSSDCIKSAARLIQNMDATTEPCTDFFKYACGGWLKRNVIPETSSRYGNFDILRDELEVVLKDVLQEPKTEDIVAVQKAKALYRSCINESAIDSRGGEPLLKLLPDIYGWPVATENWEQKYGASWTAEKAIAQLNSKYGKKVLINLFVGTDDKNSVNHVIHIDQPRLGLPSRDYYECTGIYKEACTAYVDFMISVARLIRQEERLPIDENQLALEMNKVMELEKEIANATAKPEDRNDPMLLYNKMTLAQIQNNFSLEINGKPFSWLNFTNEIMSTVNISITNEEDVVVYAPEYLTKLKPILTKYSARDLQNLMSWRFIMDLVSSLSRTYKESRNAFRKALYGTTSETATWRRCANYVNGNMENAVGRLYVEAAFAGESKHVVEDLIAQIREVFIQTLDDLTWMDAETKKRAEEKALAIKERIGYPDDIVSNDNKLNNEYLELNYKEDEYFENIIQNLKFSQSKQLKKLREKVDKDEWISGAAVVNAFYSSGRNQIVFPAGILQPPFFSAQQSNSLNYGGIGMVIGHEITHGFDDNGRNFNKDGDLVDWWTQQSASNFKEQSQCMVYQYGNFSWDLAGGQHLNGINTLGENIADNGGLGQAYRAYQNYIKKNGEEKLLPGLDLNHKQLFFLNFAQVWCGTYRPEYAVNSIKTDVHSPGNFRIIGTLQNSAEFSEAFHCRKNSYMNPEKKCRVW

[4] = Biodistribution assay (LC-MS of brain, pancreas, plasma after IP injection); type: in vivo, mouse; settings: mice, 45 minutes after intraperitoneal injection
Protocol: Macrocycles were diluted to 0.1 mg/mL or 1 mg/mL in PBS and IP-injected into a mouse to produce a concentration of 1 mg/kg or 10 mg/kg, respectively. After 45 minutes, organs were harvested, and the small-molecule fractions were extracted into a 2:1:1 mixture of chloroform:methanol:water. Samples were evaporated under a stream of nitrogen, resuspended in 100 μL of chloroform and subjected to LC-MS analysis.
The tissue distribution of enriched macrocycles after i.p. injection was examined. […] Briefly, compounds were injected at different concentrations intraperitoneally into mice, and plasma, brain, and pancreas were harvested after 45 minutes. Vehicle-only injections were performed as negative controls. We determined the relative amount of macrocycle present by extracting the organs with organic solvents and quantifying the amount of compound present by LC-MS analysis.

trypsin = assay: Trypsin activity assay (Z-Arg-AMC substrate); settings: even when assayed at 100 μM
[5] = Preliminary pharmacokinetics after i.p. injection (LC-MS quantitation in plasma); settings: mice, 20 mg/kg i.p.
IDE [6] = molecular target: T1, IDE; assay: Yonetani-Theorell double inhibition of IDE; type: biochemical; settings: varying concentrations of both 6b and Ii1
Description: The lack of obvious structural relationship between 6b and known IDE substrates, together with its excellent selectivity profile, raised the possibility that 6b may inhibit IDE by binding an allosteric site, rather than the active site. To test this possibility, we assayed IDE in vitro in the presence of varying concentrations of both 6b and Ii1.

[7] = fluorophore-quencher model peptide

SMILES: NC(=O)C1CCCCNC(=O)C(Cc2ccc(C(=O)c3ccccc3)cc2)NC(=O)C(CC2CCCCC2)NC(=O)CC(O)C(CC2CCCCC2)NC(=O)C=CC(=O)N1 (centres unmarked) [Compound 3b]
IC50 (IDE [1]; [7]): 1.5 µM

SMILES: NCCCC[C@@H]1NC(=O)/C=C/C(=O)NC(C(N)=O)CCCCNC(=O)[C@@H](Cc2ccc(C(=O)c3ccccc3)cc2)NC(=O)[C@H](CC2CCCCC2)NC1=O (some centres unmarked) [Compound 20]
solubility in water or saline (Solubility): < 100 mM
activity / potency against IDE (in words) (IDE [1]): equipotent

SMILES: NC(=O)C1CCCCNC(=O)C(Cc2ccc(C(=O)c3ccccc3)cc2)NC(=O)C(CC2CCCCC2)NC(=O)CC(O)C(CC2CCCCC2)NC(=O)C=CC(=O)N1 (centres unmarked) [Compound 3a]
IC50 (IDE [1]; [7]): > 20 µM

SMILES: NC(=O)C1CCCCNC(=O)C(Cc2ccc(C(=O)c3ccccc3)cc2)NC(=O)C(CC2CCCCC2)NC(=O)CC(O)C(CC2CCCCC2)NC(=O)C=CC(=O)N1 (mixture of isomers) [Compound 3]
enrichment against IDE (IDE [2]; IDE selection 1, one round): 4- to 14 fold
enrichment against IDE (IDE [2]; replicate IDE selection 2): 3- to 6 fold
potency of trans-olefin isomer relative to corresponding cis-olefin isomer (IDE [1]): > 10 fold

SMILES: N=C(N)NCCCC1NC(=O)C=CC(=O)NC(C(N)=O)CCCCNC(=O)C(Cc2ccc(C(=O)c3ccccc3)cc2)NC(=O)C(CC2CCCCC2)NC1=O (centres unmarked) [Compound 2]
enrichment against IDE (IDE [2]; IDE selection 1, one round): 4- to 14 fold
enrichment against IDE (IDE [2]; replicate IDE selection 2): 3- to 6 fold
IC50 (IDE [1]; [7]): 10 µM

SMILES: NC(=O)C1CCCCNC(=O)CNC(=O)C(CC2CCCCC2)NC(=O)CC(O)C(CC2CCCCC2)NC(=O)C=CC(=O)N1 (mixture of isomers) [Compound 4]
enrichment against IDE (in words) (IDE [2]): less strongly enriched
activity / potency against IDE (in words) (IDE [1]): inactive

SMILES: NC(=O)CCC1NC(=O)C=CC(=O)NC(C(N)=O)CCCCNC(=O)C(Cc2ccc(C(=O)c3ccccc3)cc2)NC(=O)C(CC2CCCCC2)NC1=O (mixture of isomers) [Compound 6]
enrichment against IDE (IDE [2]; IDE selection 1, one round): 4- to 14 fold
enrichment against IDE (IDE [2]; replicate IDE selection 2): 3- to 6 fold
potency of trans-olefin isomer relative to corresponding cis-olefin isomer (IDE [1]): > 10 fold

SMILES: N=C(N)NCCC[C@H](NC(=O)[C@@H](CC(=O)NO)Cc1ccc2ccccc2c1)C(=O)N[C@@H](Cc1c[nH]c2ccccc12)C(=O)N[C@@H](CCC(=O)O)C(N)=O [Ii1, reference compound]
IC50 (recombinant human THOP1): 0.006 µM
IC50 (recombinant human NLN): 0.15 µM

SMILES: NC(=O)C1CCCCNC(=O)C(Cc2ccc(C(=O)c3ccccc3)cc2)NC(=O)C(CC2CCCCC2)NC(=O)C(CC2CC2)NC(=O)C=CC(=O)N1 (mixture of isomers) [Compound 5]
enrichment against IDE (IDE [2]; IDE selection 1, one round): 4- to 14 fold
enrichment against IDE (IDE [2]; replicate IDE selection 2): 3- to 6 fold
potency of trans-olefin isomer relative to corresponding cis-olefin isomer (IDE [1]): > 10 fold

SMILES: NC(=O)C1CCCCNC(=O)CNC(=O)C(CC2CCCCC2)NC(=O)CC(O)C(CC2CCCCC2)NC(=O)C=CC(=O)N1 (centres unmarked) [Compound 4a]
IC50 (IDE [1]; [7]): > 100 µM

SMILES: NC(=O)CCC1NC(=O)C=CC(=O)NC(C(N)=O)CCCCNC(=O)CNC(=O)C(CC2CCCCC2)NC1=O (centres unmarked) [Compound 1]
enrichment against IDE (in words) (IDE [2]): less strongly enriched
activity / potency against IDE (in words) (IDE [1]): inactive
IC50 (IDE [1]; [7]): > 100 µM

SMILES: NC(=O)CCC1NC(=O)C=CC(=O)NC(C(N)=O)CCCCNC(=O)C(Cc2ccc(C(=O)c3ccccc3)cc2)NC(=O)C(CC2CCCCC2)NC1=O (centres unmarked) [Compound 6a]
IC50 (IDE [1]; [7]): 5.6 µM

SMILES: NC(=O)CCC1NC(=O)C=CC(=O)NC(C(N)=O)CCCCNC(=O)C(Cc2ccc(C(=O)c3ccccc3)cc2)NC(=O)C(CC2CCCCC2)NC1=O (centres unmarked) [Compound 6b]
inhibition of plasma IDE activity (plasma IDE activity): ≥ 90%
inhibition of neprilysin (NEP) [3]: failed to demonstrate any significant inhibition
detection in brain [4]: none of the three compounds could be detected
detection in pancreas [4]: could be detected
detection in plasma [4]: could be detected
macrocycle concentration in plasma (comparison) [4]: comparable
inhibition of trypsin (trypsin): failed to demonstrate any significant inhibition
time of peak blood concentration [5]: 60 min
tolerability of injections [5]: well tolerated
peak blood concentration ([5]; 18:1:1 saline:DMSO:Tween-80): 0.2 µM
activation of THOP1 (recombinant human THOP1; at higher concentrations): Slight activation
inhibition of thimet oligopeptidase (THOP1) (recombinant human THOP1; even when assayed at 100 μM): failed to demonstrate any significant inhibition
IC50 (IDE [1]): 0.14 µM
IC50 (IDE [1]; [7]): 0.06 µM
activation of NLN (recombinant human NLN; at higher concentrations): Slight activation
inhibition of neurolysin (NLN) (recombinant human NLN; even when assayed at 100 μM): failed to demonstrate any significant inhibition
binding site relative to Ii1 (double inhibition plot) (IDE [6]): binding sites of Ii1 and 6b are distinct

Further lines, results first:

IC50 (IDE [1]; [7]): > 20 µM
SMILES: NC(=O)C1CCCCNC(=O)C(Cc2ccc(C(=O)c3ccccc3)cc2)NC(=O)C(CC2CCCCC2)NC(=O)C(CC2CC2)NC(=O)C=CC(=O)N1 (centres unmarked) [Compound 5a]

IC50 (IDE [1]; [7]): 1 µM
SMILES: NC(=O)C1CCCCNC(=O)C(Cc2ccc(C(=O)c3ccccc3)cc2)NC(=O)C(CC2CCCCC2)NC(=O)C(CC2CC2)NC(=O)C=CC(=O)N1 (centres unmarked) [Compound 5b]

Reference: patent publication US9243038B2, “Macrocyclic insulin-degrading enzyme (IDE) inhibitors and uses thereof” (President and Fellows of Harvard College, priority 2011, dated 2016)
